Converted amounts (≈) assume the structure as drawn. Like-named read-outs stand apart in the source and are kept apart here.
What was measured:
DdlB = DdlB (Escherichia coli, UniProt P07862); test: Surface plasmon resonance, immobilised DdlB; format: binding, E. coli; conditions: steady-state affinity model, three titrations, 25 °C; read-out: apparent equilibrium dissociation constant KD
Protocol: Figure 2. Fragment hit 3 targeting DdlB. (A) Dose–response inhibition of DdlB for 3. (B) SPR analysis of 3 with the immobilised DdlB. 3 was injected across DdlB in serial dilutions ranging from 78.125 to 5000 µM for 40 s at a flow rate of 30 μL/min, and dissociation was followed for 40 s. […] (C) Data were fitted to the steady-state affinity model to obtain the apparent equilibrium dissociation constant (KD). KD values are the mean ± standard deviation of three titrations. (D) ATP (blue sticks) and D-Ala-D-Ala (white sticks) binding sites of DdlB (PDB ID: 4C5C) with the co-crystallised ligands. (E) Computational docking of 3 to the ATP-binding site using extra-precision Glide (blue sticks) and QM-Polarized Ligand Docking (orange sticks) (PDB ID: 4C5C).
Binding of 3 to DdlB was confirmed by an orthogonal biophysical assay, surface plasmon resonance (SPR). […]
The SPR measurements were performed at the Infrastructural Centre for Analysis of Molecular Interactions at the Department of Biology, University of Ljubljana on a Biacore T200 (GE Healthcare) at 25 °C. […] The data were analysed with the Biacore T200 Evaluation Software and KD was determined by fitting the data to the steady state affinity model. The average KDs and standard deviations were determined from three titrations of 3.

[1] = molecular target: T1, E. coli DdlB enzyme (D-alanine:D-alanine ligase) (Escherichia coli, UniProt P07862); test: biochemical; conditions: for IC50: 700 μM D-Ala, 100 μM ATP, read-out: DdlB inhibition IC50; for remaining activity at 5000 µM: at 5 mM, read-out: DdlB inhibition, RA (Residual Activity)
T1 construct: made in house; host or cells: E. coli

DdlB from E. coli = molecular target: T2, DdlB from E. coli (Escherichia coli, UniProt P07862); test: Steady-state kinetics, Ki determination against DdlB (ATP varied); format: biochemical
T2 construct: made in house; host or cells: E. coli
Protocol: Binding of 3 to DdlB was confirmed by an orthogonal biophysical assay, surface plasmon resonance (SPR). The protein was covalently attached to the surface of the CM5 chip (∼7700 response units), and the ligand was titrated across the surface (Figure 2(B)). […] Steady-state kinetics were performed to gain mechanistic insight into the inhibition of compound 3 (Supplementary Figure S3 and Table S6).
For compound 3, Ki values were determined against DdlB from E. coli. Ki determinations were performed under similar conditions as described for DdlB inhibition assay, where different concentration of one substrate and fixed concentration of the other were used. The concentration of ATP (50, 100, 200, 300 and 500 µM) was varied at fixed concentration of D-Ala (700 µM). The concentrations of compound 3 were 0, 25, 50, 100, 250, 500, and 1000 µM. After 20 min of incubation, […] of Biomol® green reagent was added, and absorbance was read at 650 nm after 5 min. Initial data were fitted to competitive, (v/V = [S]/{KM(1 + [I]/KI)+ [S]}), non-competitive (v/V = [S]/{(1 + [I]/KI)(KM+ [S])}), uncompetitive (v/V = [S]/{KM+ [S](1 + [I]/KI)}) inhibition models in which v is observed reaction rate, V is the maximum rate, KM is the Michaelis constant, using SigmaPlot 12.0 software. The best fit was taken as the one having the highest R^2, the lowest standard error and the narrowest 95% confidence interval in each parameter (see Supplementary Table S6).

[2] = molecular target: E. coli MurA enzyme (UDP-N-acetylglucosamine enolpyruvyl transferase) (Escherichia coli, UniProt P0A749); test: MurA inhibition assay (malachite green, deselection); conditions: read-out: MurA inhibition, RA (Residual Activity)
Protocol: Inhibition of the enzyme was determined using an end-point malachite green assay by detecting the orthophosphate formed during the enzymatic reaction. […] The final DMSO concentration was 5%. […] A parallel experiment without the enzyme was performed to detect insoluble compounds under the assay conditions and subtracted from each measurement. All experiments were performed in duplicates. RAs were calculated with respect to blank experiments without tested compounds and with 5% DMSO.

E. coli ATCC 25922 = test: MIC by broth microdilution; format: cell-based; conditions: for MIC: Escherichia coli
Protocol: (§1) The antibacterial activities of 3 were determined according to the European Committee for […] Susceptibility Testing recommendations and Clinical Laboratory Standards Institute protocol. Compound was tested against reference strains of E. coli and Staphylococcus aureus and against two mutant E. coli strains. E. coli D22 bears a mutation in the LpxC gene that increases membrane permeability, whereas E. coli N43 is an AcrA knockout strain (knockout of the cell membrane pump). […] The most plausible reason is the low on target activity of the hit fragment, however, also the poor penetration into the bacterial cell or efflux pumps effect cannot be ruled out. Although the lack of antibacterial activity is a limitation, hit compound 3 represents a fragment-sized starting point for the development of new compounds with increased DdlB inhibitory potency as well as antibacterial activity.
(§2) Minimum inhibitory concentrations (MICs) for 3 were determined by broth microdilution in Cation-adjusted Mueller-Hinton broth (MH) with TES, TREK Diagnostic Systems Ltd. against S. aureus ATCC 29213, E. coli ATCC 25922, E. coli N43 and E. coli D22. All of the experiments were performed in duplicate in 96-well plate format according to CLSI guidelines and European Committee for Antimicrobial Susceptibility Testing recommendations. The bacterial suspension of a specific bacterial strain was diluted with MH broth to obtain a final inoculum of 5 × 10^5 CFU/mL in the assay. Compound 3 dissolved in DMSO and inoculum were mixed together and incubated for 20 h at 35 °C. After incubation, the minimal inhibitory concentration (MIC) values were determined by visual inspection as the lowest dilution of compounds showing no turbidity. The MICs were determined against S. aureus (ATCC 29213), E. coli (ATCC 25922), E. coli N43, and E. coli D22 bacterial strains. D-Cycloserine was used as a positive control.

E. coli D22 = test: MIC by broth microdilution; format: cell-based; conditions: Escherichia coli, D22, 20 h
Protocol: as §1, §2

S. aureus ATCC 29213 = test: MIC by broth microdilution; format: cell-based; conditions: for MIC: Staphylococcus aureus
Protocol: as §1, §2

E. coli N43 = test: MIC by broth microdilution; format: cell-based; conditions: Escherichia coli, N43, 20 h
Protocol: as §1, §2

Sequence of E. coli MurA enzyme (UDP-N-acetylglucosamine enolpyruvyl transferase) (P0A749 whole entry): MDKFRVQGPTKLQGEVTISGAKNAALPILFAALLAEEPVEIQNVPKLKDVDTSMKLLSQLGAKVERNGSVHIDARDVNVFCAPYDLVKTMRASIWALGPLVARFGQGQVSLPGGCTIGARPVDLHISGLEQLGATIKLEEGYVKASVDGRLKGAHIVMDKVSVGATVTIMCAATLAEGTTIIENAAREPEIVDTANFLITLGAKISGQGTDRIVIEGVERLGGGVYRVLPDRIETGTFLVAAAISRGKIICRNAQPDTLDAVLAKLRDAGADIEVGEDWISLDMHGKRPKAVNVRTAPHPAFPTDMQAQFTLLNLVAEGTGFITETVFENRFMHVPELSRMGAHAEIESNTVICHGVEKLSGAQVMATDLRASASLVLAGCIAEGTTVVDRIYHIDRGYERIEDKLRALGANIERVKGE

SMILES | IC50 [1] [µM] | remaining activity at 5000 µM [2] [%] | MIC (E. coli D22) [µg/mL] | MIC (E. coli N43) [µg/mL] | remaining activity at 5000 µM [1] [%] | other results
Cc1cccc(-c2ccnc3c(C(=O)O)cnn23)c1 [Compound 3, 7-(m-Tolyl)pyrazolo[1,5-a]pyrimidine-3-carboxylic acid] | 168 | 64 | > 128 | > 128 | – | Kd (DdlB): 3200 µM; Ki (DdlB from E. coli; Competitive (full) model, best fit, ATP varied, D-Ala 700 µM): 20.7 ± 4.5 µM; Ki (DdlB from E. coli; Competitive (partial) model): 20.7 ± 5.2 µM; Ki (DdlB from E. coli; Noncompetitive (full) model): 221 ± 21.7 µM; inhibition mechanism (DdlB from E. coli; with respect to ATP): competitive inhibitor with respect to ATP; antibacterial activity (in words) (E. coli ATCC 25922; E. coli): no antibacterial activity; MIC (E. coli ATCC 25922; ATCC25922, 20 h): > 128 µg/mL; antibacterial activity (in words) (S. aureus ATCC 29213; S. aureus): no antibacterial activity; MIC (S. aureus ATCC 29213; ATCC29213, 20 h): > 128 µg/mL
Nc1ccc2ncc(C(=O)O)c(O)c2c1 [Compound 7, 6-Amino-4-hydroxyquinoline-3-carboxylic acid] | – | 81 | – | – | 47 | –
CCOc1ccc2c(n1)CCN(C(=O)c1ccccn1)C2 [Compound 6, (2-Ethoxy-7,8-dihydro-1,6-naphthyridin-6(5H)-yl)(pyridin-2-yl)methanone] | – | 104 | – | – | 25 | remaining activity at 2100 µM ([1]; residual activity, tested concentration 2.1 mM, read-out: DdlB RA): 44%
N[C@@H]1CON=C1O [D-Cyclo-serine, D-Cycloserine, reference compound] | 108 | – | 16 (≈ 157 µM) | 32 (≈ 313 µM) | – | MIC (E. coli ATCC 25922; ATCC25922, E. coli ATCC 25922, 20 h at 35 °C, read-out: MIC): 64 µg/mL (≈ 627 µM); MIC (S. aureus ATCC 29213; ATCC29213, S. aureus ATCC 29213, 20 h at 35 °C, read-out: MIC): 32 µg/mL (≈ 313 µM)
COCc1cn(C2CNC2)nn1 [Compound 8] | – | 100 | – | – | 95 | –

Source: article PMC9718554, “Discovery of a fragment hit compound targeting D-Ala:D-Ala ligase of bacterial peptidoglycan biosynthesis” (Journal of Enzyme Inhibition and Medicinal Chemistry, 2022)
